Assay results taken from US20230346969A1, “INTERMEDIATE FOR PREPARING ANTIBODY-DRUG CONJUGATE (ADC), PREPARATION METHOD THEREFOR, AND USE THEREOF” (priority 2020, published 2023).
Read-outs that look alike come from different tables or passages of the source. Where a SMILES comes first, the peptide text is derived from it. [ ]: non-standard residue; d: D form. The star is where a group is joined. Dolaproine = CO[C@@H]([C@@H]1CCCN1)[C@@H](C)C(=O)O; Dil = CC[C@H](C)[C@H](NC)[C@@H](CC(=O)O)OC; X1 = C[C@@H](N*)[C@@H](O)c1ccccc1; NMeV = CN[C@H](C(=O)O)C(C)C

Experiments:
HT29 = assay: Cell viability assay (CCK-8); format: cell-based; details: free payloads, CCK-8, 96 hours, cell 'H123' [sic], Colon, read-out: IC50 (95% Cl)
Experimental: (§1) Cell viability was determined using Cell Counting Kit 8 (CCK-8). Cells were seeded into 96-well plates at 3000-10000 cells/well. After incubation overnight, drugs were added at different concentrations. Plates were incubated in a 5% CO2, 37° C. humidified chamber for 96 hours. CCK8 reagent was added thereto and the plates were placed back to the incubator until the absorbance at 450 nm of untreated control cells was greater than 1.0. Growth inhibition was measured as the percent growth relative to untreated cells. Dose response curve was generated from the mean values of two or three tests, and IC50 values were calculated using Prism GraphPad software.
(§2) The anti-tumor efficacy of different payloads on different tumor cell lines was detected by CCK-8, and the results are shown in FIG. 5.

CFPAC-1 = assay: Cell viability assay (CCK-8); format: cell-based; details: free payloads, CCK-8, 96 hours, cell CFPAC-1, Pancreas, read-out: IC50 (95% Cl)
Experimental: as §1, §2

MDA-MB-468 = assay: Cell viability assay (CCK-8); format: cell-based; details: free payloads, CCK-8, 96 hours, cell printed 'MOA-413-468', Mamary, read-out: IC50 (95% Cl)
Experimental: as §1, §2

BXPC-3 = assay: Cell viability assay (CCK-8); format: cell-based; details: free payloads, CCK-8, 96 hours, cell 'BKFC-Y' [sic], Pancreas, read-out: IC50 (95% Cl)
Experimental: as §1, §2

NCI-H1688 = assay: Cell viability assay (CCK-8); format: cell-based; details: free payloads, CCK-8, 96 hours, cell 'NCl-H1828' [sic], Lung, read-out: IC50 (95% Cl)
Experimental: as §1, §2

Capan-1 = assay: Cell viability assay (CCK-8); format: cell-based; details: free payloads, CCK-8, 96 hours, cell 'Cepes-3' [sic], Pancreas, read-out: IC50 (95% Cl)
Experimental: as §1, §2

SKBR3 = assay: Cell viability assay (CCK-8); format: cell-based; details: free payloads, CCK-8, 96 hours, cell 'SK8RS' [sic], Mamary, read-out: IC50 (95% Cl)
Experimental: as §1, §2

SCLC-21H = assay: Cell viability assay (CCK-8); format: cell-based; details: free payloads, CCK-8, 96 hours, cell 'ECLC 214' [sic], Small cell lung, read-out: IC50 (95% Cl)
Experimental: as §1, §2

COLO205 = assay: Cell viability assay (CCK-8); format: cell-based; details: free payloads, CCK-8, 96 hours, cell 'CCAO205' [sic], Colen, read-out: IC50 (95% Cl)
Experimental: as §1, §2

SK-MES-1 = assay: Cell viability assay (CCK-8); format: cell-based; details: free payloads, CCK-8, 96 hours, cell 'SK-M55-1' [sic], Lung, read-out: IC50 (95% Cl)
Experimental: as §1, §2

MDA-MB-231 = assay: Cell viability assay (CCK-8); format: cell-based; details: free payloads, CCK-8, 96 hours, 'MCP-83-21' [sic], Mamary, read-out: IC50 (95% Cl)
Experimental: as §1, §2

HCC1806 = assay: Cell viability assay (CCK-8); format: cell-based; details: free payloads, CCK-8, 96 hours, 'HCCHOI' [sic], Mamary, read-out: IC50 (95% Cl)
Experimental: as §1, §2

[1] = Adverse effects and weight loss of mice treated in the efficacy models; format: in vivo, BALB/c nu/nu mice; details: hRS7-VK-MMAE 3 mg/kg; hRS7-VK-SN38 3 or 10 mg/kg; PTX alone
Description: Five-week-old female athymic BALB/c nu/nu mice were purchased from Charles River Company (Shanghai, China), and mice were randomly divided into 5-6 mice/group. Animal handling and procedures were approved and performed in accordance with the requirements of the Institutional Animal Care and Use Committee (IACUC) of Shanghai Institute of Materia Medica, Chinese Academy of Sciences. All models were inoculated subcutaneously on the side of mice. BXPC-3, HCC1806 and NCIH1688 cells were established by injecting and homogenizing 5 × 10^6 cells in Matrigel matrix. COLO205 cells were established by injecting and suspending 1 × 10^7 cells in Matrigel matrix. After the tumor volume reached about 200 mm^3, the tumor-bearing mice were randomly divided into treatment groups and a control group according to the tumor volume. Each drug was administered intraperitoneally. Mice were injected at doses of 3 or 10 mg/kg (10 mL/kg). Tumor volume was defined as length × ½ × width × width. The percentage of inhibition was calculated by the following formula: (1-average tumor volume of the treatment group/average tumor volume of the control group)×100%. Toxicity of the different treatment groups was assessed by monitoring weight loss.

[2] = tested on: tumor cell lines with different expression levels of Trop-2; assay: Cell viability assay (CCK-8), comparison across the cell panel; format: cell-based; details: tumor cell lines with different expression levels of Trop-2
Experimental: as §1, §2

With `CC[C@H](C)[C@@H]([C@@H](CC(=O)N1CCC[C@H]1[C@H](OC)[C@@H](C)C(=O)N[C@H](C)[C@@H](O)c1ccccc1)OC)N(C)C(=O)[C@@H](NC(=O)[C@@H](NC)C(C)C)C(C)C` [MMAE] (H-[NMeV]V[Dil][Dolaproine]-X1) the IC50 (HT29) was roughly 3.05 nM, the IC50 (CFPAC-1) was greater than 300 nM and the IC50 (MDA-MB-468) was roughly 0.141 nM. It also gave an IC50 (BXPC-3) of 0.263 nM, an IC50 (NCI-H1688) of 1.74 nM and an IC50 (Capan-1) of 0.366 nM. It also gave an IC50 (SKBR3) of 0.0327 nM, an IC50 (SCLC-21H) of 0.0131 nM and an IC50 (COLO205) of 0.155 nM. It also gave an IC50 (SK-MES-1) of 0.225 nM, an IC50 (MDA-MB-231) greater than 300 nM and an IC50 (HCC1806) of 0.0177 nM.
In the case of `CC(=O)O[C@H]1C(=O)[C@@]2(C)[C@H]([C@H](OC(=O)c3ccccc3)[C@]3(O)C[C@H](OC(=O)[C@H](O)[C@@H](NC(=O)c4ccccc4)c4ccccc4)C(C)=C1C3(C)C)[C@]1(OC(C)=O)CO[C@@H]1C[C@@H]2O` [PTX, Paclitaxel], the “adverse effects or weight loss in treated mice, relative to hRS7-VK-PTX (none)” value [1] is reported as “stark contrast”, the “cytotoxicity of individual payload molecules” value [2] is reported as “weaker than that of MMAE, but close to that of SN38” and the IC50 (HT29; Homo sapiens, HT-29) is reported as greater than 300 nM. The IC50 (CFPAC-1; Homo sapiens) was greater than 300 nM, the IC50 (MDA-MB-468; Homo sapiens, MDA-MB-468) was 7.22 nM and the IC50 (BXPC-3; Homo sapiens, BXPC-3) was 0.468 nM. It also gave an IC50 (NCI-H1688; NCI-H1688) of 37.3 nM, an IC50 (Capan-1; Homo sapiens, CAPAN-1) of 7.43 nM and an IC50 (SKBR3; Homo sapiens, SK-BR-3) of roughly 852 nM. The IC50 (SCLC-21H; Homo sapiens, SCLC-21H) was roughly 32 nM, the IC50 (COLO205; Homo sapiens, COLO 205) was greater than 300 nM and the IC50 (SK-MES-1; Homo sapiens, SK-MES-1) was 53.1 nM. It also gave an IC50 (MDA-MB-231; Homo sapiens, MDA-MB-231) greater than 300 nM and an IC50 (HCC1806; Homo sapiens, HCC1806) of 2.46 nM.
